For data set [1], the target named is T1, ADAM10 (Homo sapiens, UniProt O14672).
T1 sequence (O14672 214-748): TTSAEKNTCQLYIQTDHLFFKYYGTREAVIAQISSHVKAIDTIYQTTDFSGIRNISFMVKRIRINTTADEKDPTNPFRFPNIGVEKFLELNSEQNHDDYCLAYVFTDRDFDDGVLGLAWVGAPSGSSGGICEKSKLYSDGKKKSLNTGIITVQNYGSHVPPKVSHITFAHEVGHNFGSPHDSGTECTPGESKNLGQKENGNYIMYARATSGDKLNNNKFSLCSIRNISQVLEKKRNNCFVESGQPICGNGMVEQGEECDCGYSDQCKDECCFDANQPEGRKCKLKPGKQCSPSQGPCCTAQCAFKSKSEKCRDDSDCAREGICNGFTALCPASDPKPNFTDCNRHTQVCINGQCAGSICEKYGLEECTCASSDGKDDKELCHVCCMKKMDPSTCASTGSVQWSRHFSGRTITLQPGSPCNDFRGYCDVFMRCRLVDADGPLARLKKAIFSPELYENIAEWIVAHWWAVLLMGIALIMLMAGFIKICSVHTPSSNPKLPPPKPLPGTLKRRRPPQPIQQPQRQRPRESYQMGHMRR
The following applies: cited from earlier work.

For data set [2], the target named is T2, ADAM17 (Homo sapiens, UniProt P78536). The conditions noted are these: cited from earlier work.
T2 sequence (P78536 215-824, species assumed): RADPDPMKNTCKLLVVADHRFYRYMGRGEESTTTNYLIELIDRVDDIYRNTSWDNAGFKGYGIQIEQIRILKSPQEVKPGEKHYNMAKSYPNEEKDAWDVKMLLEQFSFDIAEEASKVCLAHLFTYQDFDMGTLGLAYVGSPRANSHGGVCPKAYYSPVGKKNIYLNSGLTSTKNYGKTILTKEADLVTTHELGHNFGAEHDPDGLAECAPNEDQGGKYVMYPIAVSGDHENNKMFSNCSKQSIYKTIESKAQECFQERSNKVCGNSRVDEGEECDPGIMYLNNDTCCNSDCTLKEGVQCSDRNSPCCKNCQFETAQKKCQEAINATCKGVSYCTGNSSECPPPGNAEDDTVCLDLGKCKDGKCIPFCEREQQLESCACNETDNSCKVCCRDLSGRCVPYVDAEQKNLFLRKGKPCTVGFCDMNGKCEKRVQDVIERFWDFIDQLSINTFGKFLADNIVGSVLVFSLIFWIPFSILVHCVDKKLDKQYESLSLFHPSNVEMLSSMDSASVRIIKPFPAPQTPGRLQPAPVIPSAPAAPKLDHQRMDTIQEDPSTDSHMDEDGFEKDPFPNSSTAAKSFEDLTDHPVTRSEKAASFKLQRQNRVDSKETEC
In a further data set the test system is CXCL16. Briefly: Cell-based inhibition of CXCL16 shedding (responsible ADAM 10) in A549 cells. The conditions noted are these: CXCL16, Human, 10 μM tested. An excerpt:
(§1) The instant inventor has discovered a conceptually novel class of ADAM10 inhibitors acting via a non-zinc-binding inhibition mechanism.

In another data set the test system is CCL2-induced. Briefly: Cell-based inhibition of CCL2-induced migration of PBMC (responsible ADAM 10). The conditions noted are these: Human, 10 μM tested.
Text: as §1

The subject of a further data set is IL8-induced migration. Briefly: Cell-based inhibition of IL8-induced migration of neutrophils (responsible ADAM 10). The following applies: Human, 10 μM tested.
Text: as §1

In a further data set the test system is ICOSL. As to the kind of experiment: Cell-based inhibition of ICOSL shedding (responsible ADAM 10) in B cells. The following applies: Mouse, 10 μM tested.
Text: as §1

A short description of data set [3]: Toxicity in cell-based assays.
Text: as §1

In data set [4] the target is T1, ADAM10. Briefly: ADAM10 inhibition, HTS campaign and profiling. Type of data set: biochemical. An excerpt: (§2) An ADAM10 non-Zn-binding inhibition approach overcomes drawbacks of Zn-binders. As shown by global knockout studies. ADAM10 is vital for development, homeostasis and repair, which makes global inhibition of all functions of this enzyme non-feasible as a therapeutic approach. […] In previous research, the instant inventor conducted a HTS campaign to identify inhibitors of ADAM10 and ADAM17. […] This was verified by profiling studies. An exceptional HTS hit, however, is CID3117694 and related compounds (FIG. 7). While it contains highly polar functionality, these groups are not typical Zn binders, such as the hydroxamic acid groups highlighted in LT4, INCB8765, and GI254023X. […] This new class of selective ADAMI0 inhibitors acts via a non-Zn-binding mechanism and that potentially bind outside of an active site at the hitherto unknown secondary substrate binding site (exosite).

Data set [5] addresses T2, ADAM17. As to the kind of experiment: ADAM17 counter-screen, HTS campaign and profiling. Type of data set: biochemical.
Text: as §2

The test system of data set [6] is broader panel of Zn metalloproteases. As to the kind of experiment: Profiling against broader panel of Zn metalloproteases. It is filed as biochemical.
Text: as §2

In data set [7] the test system is collagen-induced arthritis model. As to the kind of experiment: Collagen-induced arthritis (CIA) in vivo model. Set-up: species or system rat. An excerpt: FIG. 1 is a graph showing disease scores of rat collagen-induced arthritis model study of CID3117694. The disease score is used to assess severity of rheumatoid arthritis (RA) by measuring disease activity, functional impairment, and physical damage present. FIG. 2 is a graph showing paw swelling measurements of rat collagen-induced arthritis model study of CID3117694.* FIGS. 3A-F show micrographs of paw swelling observations of rat collagen-induced arthritis model study of CID3117694. […] The following scale was used: Score 0: normal: Score 1: one joint type (A, B or C) has redness and swelling: Score 2: Two joint types have redness and swelling: Score 3: all three joint types have redness and swelling; and Score 4: maximal redness and swelling of the entire paw leads to disappearance of anatomical definition. […] To test the efficacy of using ADAM10 inhibitor. CID3117694, for treatment of rheumatoid arthritis (RA), the instant inventor conducted a study using the […] Collagen-induced Arthritis (CIA) in vivo model. This model is a gold standard for RA pre-clinical studies of investigational drugs.

Data set [8] addresses T1, ADAM10. The following applies: PubChem AID 743338; cited from earlier work.
A further data set has as its target adrenergic (ADRB2) (Homo sapiens, UniProt P07550). The following applies: PubChem; cited from earlier work.
In another data set the target is T3, muscarinic (CHRM1) (Homo sapiens, UniProt P11229).
T3 sequence (P11229 1-460): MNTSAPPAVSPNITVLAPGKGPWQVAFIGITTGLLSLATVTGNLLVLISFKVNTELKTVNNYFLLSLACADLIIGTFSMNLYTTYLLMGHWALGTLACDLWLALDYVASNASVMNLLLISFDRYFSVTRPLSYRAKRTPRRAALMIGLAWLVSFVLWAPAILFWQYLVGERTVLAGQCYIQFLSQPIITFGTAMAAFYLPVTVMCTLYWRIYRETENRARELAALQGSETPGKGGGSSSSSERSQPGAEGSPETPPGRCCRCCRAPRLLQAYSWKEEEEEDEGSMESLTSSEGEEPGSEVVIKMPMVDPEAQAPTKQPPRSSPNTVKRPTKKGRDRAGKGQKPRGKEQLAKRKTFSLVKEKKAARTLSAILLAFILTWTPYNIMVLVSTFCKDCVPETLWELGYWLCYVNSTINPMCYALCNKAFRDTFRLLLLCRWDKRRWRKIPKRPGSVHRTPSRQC
The following applies: PubChem; cited from earlier work.

For a further data set, the target named is opioid receptors (OPRK1) (Homo sapiens, UniProt P41145). The conditions noted are these: PubChem; cited from earlier work.
Sequence of opioid receptors (OPRK1) (P41145 whole entry, species assumed): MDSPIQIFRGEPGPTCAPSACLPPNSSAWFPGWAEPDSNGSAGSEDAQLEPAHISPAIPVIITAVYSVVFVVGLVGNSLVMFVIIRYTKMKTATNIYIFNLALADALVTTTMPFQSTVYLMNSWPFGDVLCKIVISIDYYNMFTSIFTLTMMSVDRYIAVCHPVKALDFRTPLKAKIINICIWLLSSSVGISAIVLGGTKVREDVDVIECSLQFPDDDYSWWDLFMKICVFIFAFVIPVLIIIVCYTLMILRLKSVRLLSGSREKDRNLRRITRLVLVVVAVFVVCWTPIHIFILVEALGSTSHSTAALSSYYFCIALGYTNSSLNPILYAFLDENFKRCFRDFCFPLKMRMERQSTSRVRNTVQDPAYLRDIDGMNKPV
The next data set deals with opioid receptors (OPRM1) (Homo sapiens, UniProt P35372). The conditions noted are these: PubChem; cited from earlier work.
Sequence of opioid receptors (OPRM1) (P35372 whole entry, species assumed): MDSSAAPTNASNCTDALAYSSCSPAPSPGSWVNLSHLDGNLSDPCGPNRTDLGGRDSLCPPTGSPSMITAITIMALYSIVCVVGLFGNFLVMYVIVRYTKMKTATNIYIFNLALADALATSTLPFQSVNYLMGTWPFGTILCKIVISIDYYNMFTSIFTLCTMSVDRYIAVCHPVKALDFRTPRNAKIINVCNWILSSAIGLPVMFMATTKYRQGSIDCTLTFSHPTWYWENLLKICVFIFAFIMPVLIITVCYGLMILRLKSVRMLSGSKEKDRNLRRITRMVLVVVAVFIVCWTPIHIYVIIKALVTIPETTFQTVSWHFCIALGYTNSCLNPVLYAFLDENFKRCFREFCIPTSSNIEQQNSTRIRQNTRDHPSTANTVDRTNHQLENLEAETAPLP
Another data set addresses opioid receptors (OPRD1) (Homo sapiens, UniProt P41143). The following applies: PubChem; cited from earlier work.
For data set [9] the following is noted: PubChem database search; cited from earlier work.

Sequence of opioid receptors (OPRD1) (P41143 whole entry, species assumed): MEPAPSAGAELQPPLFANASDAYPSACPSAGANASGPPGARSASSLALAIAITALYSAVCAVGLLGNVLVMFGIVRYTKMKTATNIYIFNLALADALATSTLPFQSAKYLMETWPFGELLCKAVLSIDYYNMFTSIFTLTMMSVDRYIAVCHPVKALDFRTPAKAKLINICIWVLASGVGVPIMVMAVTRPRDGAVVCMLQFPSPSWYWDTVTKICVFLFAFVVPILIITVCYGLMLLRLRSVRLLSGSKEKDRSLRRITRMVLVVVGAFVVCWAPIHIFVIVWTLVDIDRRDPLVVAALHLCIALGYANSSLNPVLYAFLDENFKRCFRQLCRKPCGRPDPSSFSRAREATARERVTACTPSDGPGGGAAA
Sequence of adrenergic (ADRB2) (P07550 whole entry, species assumed): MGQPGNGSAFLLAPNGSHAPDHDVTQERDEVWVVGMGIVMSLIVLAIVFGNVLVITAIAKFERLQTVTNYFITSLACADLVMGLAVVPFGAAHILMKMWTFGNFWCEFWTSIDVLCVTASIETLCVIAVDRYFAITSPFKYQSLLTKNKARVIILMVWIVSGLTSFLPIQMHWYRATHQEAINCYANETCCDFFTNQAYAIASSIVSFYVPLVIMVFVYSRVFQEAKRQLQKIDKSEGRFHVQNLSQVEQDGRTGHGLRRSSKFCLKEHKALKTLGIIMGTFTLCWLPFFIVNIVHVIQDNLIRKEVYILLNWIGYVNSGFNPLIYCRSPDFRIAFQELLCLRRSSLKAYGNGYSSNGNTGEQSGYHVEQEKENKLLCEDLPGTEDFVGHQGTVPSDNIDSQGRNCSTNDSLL

For the compound `O=C(NO)[C@H]1C[C@H](OC(=O)N2CCCC2)CC[C@@H]1C(=O)N1CCC(c2ccccc2)CC1` [INCB8765], the figures for the concentration for half-maximal inhibition (IC50) on ADAM10 [1] and at ADAM17 [2] were 97 nM and 2040 nM, respectively.
As to `CNC(=O)[C@@H](NC(=O)[C@H](CCCc1ccccc1)[C@H](C)N(O)C=O)C(C)(C)C` [GI 254023X], the values for the IC50 at ADAM10 [1] and at ADAM17 [2] were 5.3 nM and 541 nM, respectively.
Take `COc1cccc(C(=O)NNC(=O)C(=O)Nc2ccc(C)c(Cl)c2)c1` [CID3117694, N-(3-chloro-4-methylphenyl)-2-[2-(3-methoxybenzoyl) hydrazinyl]-2-oxoacetamide]: the “% Inhibition” value came to 80% in the data set with CXCL16, 50% in the data set on CCL2-induced, 100% with IL8-induced migration and 95% with ICOSL. Besides, in data set [3], the “toxicity in cell-based assays” value is reported as “lack of toxicity”. Also, the ADAM10 inhibitory potency result at ADAM10 [4] is given as “micromolar-potent”. For the same compound, at ADAM17 [5], the “affinity for ADAM17” value was “negligible affinity”. Besides, in [6], the “affinity for a broader panel of Zn metalloproteases” value is “negligible affinity”. For the same compound, in data set [7] (FIG. 1), the RA disease score result is “dose-dependently lowers”. In addition, in [7] (FIG. 2 measurement, FIGS. 3A-F observation), the paw swelling entry is given as “dose-dependently lowers”. Also, the “serum levels of RA biomarker C-reactive protein” value in data set [7] (FIG. 4) is reported as “dose-dependently decreases”. Further, the “serum levels of RA biomarker Interleukin-6 (IL-6)” value in data set [7] (FIG. 5) was “dose-dependently decreases”. Further, the “serum levels of RA biomarker Interleukin-10 (IL-10)” value in data set [7] (FIG. 6) is recorded as “dose-dependently decreases”. In addition, the “histopathology of right hind paws” value in [7] (G4, CIA+Test Comp 10 mg Kg) was “Synovial inflammation: Capital H: Hyperplasia: Capital P: Pannus Formation: Capital IEJ: Inflamed & eroded joint”; in data set [7] (G5, CIA+Test Comp 30 mg Kg), “Synovial inflammation: Capital H: Hyperplasia”; in data set [7] (G6, CIA+Test Comp 50 mg Kg), “Normal healthy bone & cartilage of arthritis joint: Capital H: Hyperplasia. Capital SI: Synovial inflammation”. Besides, the “activity in PubChem bioassay” value on ADAM10 [8] is listed as “active”. Also, the “activity against ADRB2” value at adrenergic (ADRB2) is “inactive”. In addition, the “activity against CHRM1” value at muscarinic (CHRM1) was “inactive”. On opioid receptors (OPRK1), the “activity against OPRK1” value is “inactive”. Also, the “activity against OPRM1” value on opioid receptors (OPRM1) was “inactive”. Further, the “activity against OPRD1” value on opioid receptors (OPRD1) is “inactive”. Besides, the “biological activity across PubChem bioassays” value in data set [9] is “inactive in 524 bioassays and active only against 3 targets”.
Regarding `COc1ccc2c(c1)c(CC(=O)O)c(C)n2C(=O)c1ccc(Cl)cc1` [Indomethacin, indomethacin, reference compound], the “histopathology of right hind paws” value in data set [7] (G3, CIA+Indomethacin 2.5 mg Kg) is “Normal Morphology of bone & cartilage of arthritis joint: Capital SI: Synovial inflammation: Capital H: Hyperplasia”.

One may read the IC50 as the concentration that gives 50% inhibition. For orientation: % Inhibition means the share of the control response that was lost under treatment. A low value points to a weak effect.

Source of the values: US20250177333A1, “METHOD FOR TREATING RHEUMATOID ARTHRITIS (RA) USING AN ENZYME-AND SUBSTRATE SELECTIVE EXOSITE INHIBITOR OF A DISINTEGRIN AND METALLOPROTEASE 10 (ADAM10)” (Nova Southeastern University, priority 2022, published 2025).
